Data reported in ChEMBL document CHEMBL1201862, “PubChem BioAssay data set” (2004).
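Assay format: 96-well plates, 48-hour exposure. GI50: concentration for 50% inhibition of growth.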 Calls of active or inactive are those of the source. No stated cut-off is given here; in the data, active = GI50 up to about 1.1 µM and inactive = higher.

Assays:
Assay in all cases: NCI-60 cell line screen, 48 h
OVCAR-8 = test system: OVCAR-8
CAKI-1 = test system: CAKI-1
ACHN = test system: ACHN
A498 = test system: A498
UACC-62 = test system: UACC-62
HL-60 = test system: HL-60
UO-31 = test system: UO-31
SNB-75 = test system: SNB-75
NCI-H226 = test system: NCI-H226
SF-268 = test system: SF-268
786-0 = test system: 786-0
EKVX = test system: EKVX
Malme-3M = test system: Malme-3M
UACC-257 = test system: UACC-257
M19-MEL = test system: M19-MEL
SN12C = test system: SN12C
NCI/ADR-RES = test system: NCI/ADR-RES
MDA-MB-435 = test system: MDA-MB-435
MDA-N = test system: MDA-N

Row | SMILES | GI50 (OVCAR-8) | GI50 (CAKI-1) | GI50 (ACHN) | GI50 (A498) | GI50 (UACC-62) | GI50 (HL-60) | GI50 (UO-31) | GI50 (SNB-75) | GI50 (NCI-H226) | GI50 (SF-268) | GI50 (786-0) | GI50 (EKVX) | GI50 (Malme-3M) | GI50 (UACC-257) | GI50 (M19-MEL) | GI50 (SN12C) | GI50 (NCI/ADR-RES) | GI50 (MDA-MB-435) | GI50 (MDA-N)
1 | Nc1ncnc2c1ncn2C1OC(CSC(F)(F)F)C(O)C1O (configuration not stated) | > 100 µM (inactive) | > 100 µM (inactive) | > 100 µM (inactive) | > 100 µM (inactive) | > 100 µM (inactive) | > 100 µM (inactive) | > 100 µM (inactive) | > 100 µM (inactive) | > 100 µM (inactive) | > 100 µM (inactive) | > 100 µM (inactive) | > 100 µM (inactive) | > 100 µM (inactive) | > 100 µM (inactive) | > 100 µM (inactive) | > 100 µM (inactive) |  |  | 
2 | Clc1ccc(-c2c(C3=NCCN3)nnn2-c2ccc(Cl)cc2)cc1 | 58.3 µM (inactive) | 33.5 µM (inactive) | 39.7 µM (inactive) | 17.4 µM (inactive) | 18.1 µM (inactive) | 17.5 µM (inactive) | 14.4 µM (inactive) | 17.8 µM (inactive) | 60.4 µM (inactive) | 32.2 µM (inactive) | 21.8 µM (inactive) | 59.8 µM (inactive) | 19.1 µM (inactive) | 18.2 µM (inactive) | 16.6 µM (inactive) | 71.4 µM (inactive) |  |  | 
3 | O=C(O)/C=C/c1ccc(O)c(O)c1 [CAFFEIC ACID] | > 100 µM (inactive) | > 100 µM (inactive) | > 100 µM (inactive) | > 100 µM (inactive) | > 100 µM (inactive) | > 100 µM (inactive) | 77.6 µM (inactive) | > 24 µM (inactive) | > 100 µM (inactive) | > 100 µM (inactive) | > 100 µM (inactive) | > 100 µM (inactive) | > 100 µM (inactive) | > 100 µM (inactive) | > 100 µM (inactive) | > 100 µM (inactive) |  |  | 
4 | Cc1c2nc3ccccc3sc-2cc(=O)c1C | 49.7 µM (inactive) | 55 µM (inactive) | 48.9 µM (inactive) | > 100 µM (inactive) | 15.5 µM (inactive) | 14.1 µM (inactive) | 36 µM (inactive) | 52.6 µM (inactive) | > 100 µM (inactive) | 25.6 µM (inactive) | > 100 µM (inactive) | > 80.4 µM (inactive) | 46.5 µM (inactive) | 10.3 µM (inactive) | 15.8 µM (inactive) | > 10 µM (inactive) |  |  | 
5 | O=C1C(Nc2ccc(S(=O)(=O)Nc3cnc4ccccc4n3)cc2)=C/C(=N\c2ccc(S(=O)(=O)Nc3cnc4ccccc4n3)cc2)c2ccccc21 | 19.8 µM (inactive) | 16.4 µM (inactive) | 30.7 µM (inactive) | 15.3 µM (inactive) | 18.2 µM (inactive) | 27.9 µM (inactive) | 15.6 µM (inactive) | 14.6 µM (inactive) | 20.6 µM (inactive) | 20 µM (inactive) | 17.2 µM (inactive) | 18.2 µM (inactive) | 17.9 µM (inactive) | 37.7 µM (inactive) | 16.6 µM (inactive) | 16.7 µM (inactive) | 44.6 µM (inactive) | 18.9 µM (inactive) | 18.8 µM (inactive)
6 | O=C(CC(=O)c1cccc([N+](=O)[O-])c1)C(=O)Nc1ccccc1 | > 100 µM (inactive) | > 100 µM (inactive) | > 100 µM (inactive) | > 100 µM (inactive) | > 100 µM (inactive) | > 100 µM (inactive) | > 100 µM (inactive) | > 100 µM (inactive) | > 100 µM (inactive) | > 100 µM (inactive) | > 100 µM (inactive) | > 100 µM (inactive) | > 100 µM (inactive) | > 100 µM (inactive) | > 100 µM (inactive) | > 100 µM (inactive) |  |  | 
7 | O=C(NOC(=O)c1ccc([N+](=O)[O-])cc1)c1ccc(Cl)cc1 | 98.6 µM (inactive) | 39.6 µM (inactive) | 37.6 µM (inactive) | > 100 µM (inactive) | 36.2 µM (inactive) | 15.8 µM (inactive) | 23.8 µM (inactive) | 15 µM (inactive) |  | > 100 µM (inactive) | 54.6 µM (inactive) | > 100 µM (inactive) | > 100 µM (inactive) | > 100 µM (inactive) | > 100 µM (inactive) | 62.4 µM (inactive) |  |  | 
8 | CCN(CC)C(=O)c1cccc2c(OC)ccc(OC)c12 | > 100 µM (inactive) | > 100 µM (inactive) | > 100 µM (inactive) | > 100 µM (inactive) | > 100 µM (inactive) | > 100 µM (inactive) | > 100 µM (inactive) | > 100 µM (inactive) | > 100 µM (inactive) | > 100 µM (inactive) | > 100 µM (inactive) | > 100 µM (inactive) | > 100 µM (inactive) | > 100 µM (inactive) | > 100 µM (inactive) | > 100 µM (inactive) |  |  | 
9 | C/C(=C\Cc1cc(O)ccc1O)CCc1c(C)c(O)c(O)c(C=O)c1C [PANICEIN C] | 17.9 µM (inactive) | 26.7 µM (inactive) | 20.3 µM (inactive) | 49.2 µM (inactive) |  | > 100 µM (inactive) | 28.2 µM (inactive) | 33.3 µM (inactive) | 34.5 µM (inactive) | 27 µM (inactive) | 25.6 µM (inactive) | 36.1 µM (inactive) | 32.9 µM (inactive) |  | 17.7 µM (inactive) | 26.7 µM (inactive) |  |  | 
10 | [N-]=[N+]=NCC(O)Cn1cnc2c(NC(=O)c3ccccc3)ncnc21 (configuration not stated) | > 100 µM (inactive) | > 100 µM (inactive) | > 100 µM (inactive) | > 100 µM (inactive) | > 100 µM (inactive) | > 100 µM (inactive) | > 100 µM (inactive) | > 100 µM (inactive) | > 100 µM (inactive) | > 100 µM (inactive) | 41.8 µM (inactive) | > 100 µM (inactive) | > 100 µM (inactive) | > 100 µM (inactive) | > 100 µM (inactive) | > 100 µM (inactive) |  |  | 
11 | CCN(CC)CCOc1ccc(C(O)(Cc2ccc(OC)cc2)c2ccccc2)cc1 (configuration not stated) | 33.6 µM (inactive) | 21.7 µM (inactive) | 27.5 µM (inactive) | 18.1 µM (inactive) | 16.7 µM (inactive) | 7.52 µM (inactive) | 22 µM (inactive) | 12.6 µM (inactive) | 26.4 µM (inactive) | 21.5 µM (inactive) | 17.3 µM (inactive) | 26.9 µM (inactive) | 18.5 µM (inactive) | 15.7 µM (inactive) | 15.4 µM (inactive) | 27.9 µM (inactive) |  |  | 
12 | CC#CC(OCC)(OCC)OCC | > 100 µM (inactive) | > 100 µM (inactive) | > 100 µM (inactive) | > 100 µM (inactive) | > 100 µM (inactive) | > 100 µM (inactive) | > 100 µM (inactive) | > 100 µM (inactive) | > 100 µM (inactive) | > 100 µM (inactive) | > 100 µM (inactive) | > 100 µM (inactive) | > 100 µM (inactive) | > 100 µM (inactive) | > 100 µM (inactive) | > 100 µM (inactive) |  |  | 
13 | COc1cccc(-c2cc(O)c3cc4c(cc3n2)OCO4)c1 | 0.22 µM (active) | 0.0339 µM (active) | 0.183 µM (active) | 0.069 µM (active) | 0.0531 µM (active) | 0.0605 µM (active) | 0.182 µM (active) | 0.0424 µM (active) | 0.198 µM (active) | 0.731 µM (active) | 0.107 µM (active) | 2.59 µM (inactive) | 0.0488 µM (active) | 0.0452 µM (active) | 0.128 µM (active) | 0.294 µM (active) |  |  | 
14 | CS(=O)(=O)NNS(=O)(=O)c1ccccc1 | > 100 µM (inactive) | > 100 µM (inactive) | > 100 µM (inactive) | > 100 µM (inactive) | > 100 µM (inactive) | > 100 µM (inactive) | > 100 µM (inactive) | > 100 µM (inactive) | > 100 µM (inactive) | > 100 µM (inactive) | > 100 µM (inactive) | > 100 µM (inactive) | > 100 µM (inactive) | > 100 µM (inactive) | > 100 µM (inactive) | > 100 µM (inactive) |  |  | 
15 | CCCCCCCCCCCCCC(=O)O[C@H]1CC[C@H](NC(=O)[C@H](OC)[C@H](O)[C@@H](O)[C@H](O)/C=C/C(C)C)C(=O)N(C)C1 [BENGAMIDE B] | 0.00782 µM (active) | 0.0216 µM (active) | 0.00261 µM (active) | > 15 µM (inactive) | 0.00807 µM (active) | 0.01 µM (active) | 0.0208 µM (active) | 0.105 µM (active) | 0.00592 µM (active) | 0.0036 µM (active) | 0.00457 µM (active) | 1.08 µM (active) | 0.0362 µM (active) | 0.0331 µM (active) | 0.00611 µM (active) | 0.00419 µM (active) |  |  | 
16 | c1ccc2c(OCCSCCCCCCCCCCSCCOc3cccc4ccccc34)cccc2c1 | > 100 µM (inactive) | > 100 µM (inactive) | > 100 µM (inactive) | > 100 µM (inactive) | > 100 µM (inactive) | > 100 µM (inactive) | > 100 µM (inactive) | > 100 µM (inactive) | > 100 µM (inactive) | > 100 µM (inactive) | > 100 µM (inactive) | > 100 µM (inactive) | > 100 µM (inactive) | > 100 µM (inactive) | > 100 µM (inactive) | > 100 µM (inactive) |  |  | 
17 | C[Si](C)(C)/C(Br)=C\CCN1C(=O)CCC1=O | > 100 µM (inactive) | > 100 µM (inactive) | > 100 µM (inactive) | > 100 µM (inactive) | > 100 µM (inactive) | > 100 µM (inactive) | > 100 µM (inactive) | > 100 µM (inactive) | > 100 µM (inactive) | > 100 µM (inactive) | > 100 µM (inactive) | > 100 µM (inactive) | > 100 µM (inactive) | > 100 µM (inactive) | > 100 µM (inactive) | > 100 µM (inactive) |  |  | 
